Key:
Experiment in all cases: relative viability (nuclei count vs DMSO), 5 days (fraction); higher = more cells survive
Imatinib + Navitoclax = compound: Cc1ccc(NC(=O)c2ccc(CN3CCN(C)CC3)cc2)cc1Nc1nccc(-c2cccnc2)n1 [Imatinib] + CC1(C)CCC(c2ccc(Cl)cc2)=C(CN2CCN(c3ccc(C(=O)NS(=O)(=O)c4ccc(N[C@H](CCN5CCOCC5)CSc5ccccc5)c(S(=O)(=O)C(F)(F)F)c4)cc3)CC2)C1 [Navitoclax] (partner 0.5 µM)
Method in brief: (§1)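 Nuclei were stained with Hoechst during a one-step fixation (final 0.05% Triton X-100, 1% formaldehyde, 1 ug/ml Hoechst) carried out 5 days after dosing, then counted on 4× images. The cells, lung cancer lines in 1536-well plates, had been dosed by pin tool the day after seeding with one drug alone or a fixed anchor-drug dose plus five library-drug doses (not always all listed) in √10 steps. Relative viability is the nuclei count in treated wells divided by that in vehicle wells, and each value is the median of duplicate plates.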

Imatinib + Luminespib = compound: Cc1ccc(NC(=O)c2ccc(CN3CCN(C)CC3)cc2)cc1Nc1nccc(-c2cccnc2)n1 [Imatinib] + CCNC(=O)c1noc(-c2cc(C(C)C)c(O)cc2O)c1-c1ccc(CN2CCOCC2)cc1 [Luminespib] (partner 0.01 µM)
Method in brief: as §1

Imatinib + Lapatinib = compound: Cc1ccc(NC(=O)c2ccc(CN3CCN(C)CC3)cc2)cc1Nc1nccc(-c2cccnc2)n1 [Imatinib] + CS(=O)(=O)CCNCc1ccc(-c2ccc3ncnc(Nc4ccc(OCc5cccc(F)c5)c(Cl)c4)c3c2)o1 [Lapatinib] (partner 2 µM)
Method in brief: as §1

Imatinib + Alpelisib = compound: Cc1ccc(NC(=O)c2ccc(CN3CCN(C)CC3)cc2)cc1Nc1nccc(-c2cccnc2)n1 [Imatinib] + Cc1nc(NC(=O)N2CCC[C@H]2C(N)=O)sc1-c1ccnc(C(C)(C)C(F)(F)F)c1 [Alpelisib] (partner 2 µM)
Method in brief: as §1

Cell Line | relative viability (Imatinib + Navitoclax; first compound 0.02 µM) | relative viability (Imatinib + Navitoclax; first compound 0.06325 µM) | relative viability (Imatinib + Navitoclax; first compound 0.2 µM) | relative viability (Imatinib + Navitoclax; first compound 0.6325 µM) | relative viability (Imatinib + Navitoclax; first compound 2 µM) | relative viability (Imatinib + Luminespib; first compound 0.02 µM) | relative viability (Imatinib + Luminespib; first compound 0.06325 µM) | relative viability (Imatinib + Luminespib; first compound 0.2 µM) | relative viability (Imatinib + Luminespib; first compound 0.6325 µM) | relative viability (Imatinib + Luminespib; first compound 2 µM) | relative viability (Imatinib + Lapatinib; first compound 0.06325 µM) | relative viability (Imatinib + Lapatinib; first compound 0.2 µM) | relative viability (Imatinib + Lapatinib; first compound 0.6325 µM) | relative viability (Imatinib + Lapatinib; first compound 2 µM) | relative viability (Imatinib + Alpelisib; first compound 0.02 µM) | relative viability (Imatinib + Alpelisib; first compound 0.06325 µM) | relative viability (Imatinib + Alpelisib; first compound 0.2 µM) | relative viability (Imatinib + Alpelisib; first compound 2 µM) | relative viability (Imatinib + Lapatinib; first compound 0.02 µM) | relative viability (Imatinib + Alpelisib; first compound 0.6325 µM)
RERF-LC-KJ | 1.09 | 0.999 | 1 | 0.83 | 0.954 | 1.27 | 1.3 | 1.3 | 1.03 | 1.31 | 0.853 | 0.498 | 0.819 | 0.763 | 0.841 | 0.723 | 0.8 | 0.8 | – | –
SK-LU-1 | 1.14 | – | 0.885 | 0.861 | 1.01 | 0.212 | 0.222 | 0.201 | 0.243 | 0.188 | 1.1 | 1.11 | – | 0.82 | 1.07 | 1.37 | 1.19 | – | 1.08 | 0.962
SK-MES-1 | 1.41 | 1.29 | 1.33 | 1.37 | 1.44 | 0.906 | – | 0.804 | 0.714 | 0.873 | 0.512 | 0.505 | 0.471 | 0.494 | 0.887 | 0.891 | 1.03 | 0.988 | 0.496 | 0.954
SW 1573 | 1.12 | 0.955 | 1.21 | 1.06 | 1.1 | 0.23 | 0.348 | 0.293 | 0.26 | 0.233 | 0.676 | 1.28 | 0.983 | 1.17 | 0.826 | 0.785 | 1.13 | 0.927 | 1.33 | 0.842
UMC-11 | 0.303 | 0.35 | 0.291 | 0.334 | 0.329 | 1.19 | 1.22 | 1.04 | – | 0.96 | 1.1 | 1.25 | 0.995 | 0.994 | 0.982 | 1.18 | 0.957 | 1.03 | 1.01 | 1.03

Source: the supplement of paper PMC10307832
